Source: PubChem BioAssay AID1963971 (Molecular Pharmacology Branch, DTP, NCI, 2024)

Test system: 953936-095-R-J2-PDC spheroids with HUVEC/MSC, viability
Assay: Anticancer human tumor 953936-095-R-J2-PDC patient-derived cervical squamous cell carcinoma cell line growth inhibition [PI3K]
Conditions: for IC50: curve of first compound; for viability, T/C: stronger effect = lower value
Summary of the method: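 Three cell types, namely tumor cells, endothelial cells and mesenchymal stem cells, formed each spheroid. Combinations with four PI3K inhibitors were screened at clinically achievable concentrations decreasing by half-log, and spheroid viability was recorded.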
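Note: spheroids exposed to compounds for seven days before read-out.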

Compound: CNC(=O)c1ccc(N2C(=S)N(c3ccc(C#N)c(C(F)(F)F)c3)C(=O)C2(C)C)cc1F + CC(Nc1ncnc2nc[nH]c12)c1cc2cccc(Cl)c2c(=O)n1-c1ccccc1
- IC50 (second compound 0.0316 µM): > 10000 nM
- IC50 (second compound 0.1 µM): > 10000 nM
- IC50 (second compound 0.316 µM): > 10000 nM
- IC50 (second compound 1 µM): > 10000 nM
- IC50 (second compound 3.16 µM): > 10000 nM
- IC50 (second compound 10 µM): > 10000 nM
- viability, T/C (second compound 0.0316 µM, first compound 0.0316 µM): 97.9%
- viability, T/C (second compound 0.0316 µM, first compound 0.1 µM): 108%
- viability, T/C (second compound 0.0316 µM, first compound 0.316 µM): 100%
- viability, T/C (second compound 0.0316 µM, first compound 1 µM): 91.9%
- viability, T/C (second compound 0.0316 µM, first compound 3.16 µM): 103%
- viability, T/C (second compound 0.0316 µM, first compound 10 µM): 85.7%
- viability, T/C (second compound 0.1 µM, first compound 0.0316 µM): 94.2%
- viability, T/C (second compound 0.1 µM, first compound 0.1 µM): 104%
- viability, T/C (second compound 0.1 µM, first compound 0.316 µM): 108%
- viability, T/C (second compound 0.1 µM, first compound 1 µM): 93%
- viability, T/C (second compound 0.1 µM, first compound 3.16 µM): 83.2%
- viability, T/C (second compound 0.1 µM, first compound 10 µM): 74.2%
- viability, T/C (second compound 0.316 µM, first compound 0.0316 µM): 111%
- viability, T/C (second compound 0.316 µM, first compound 0.1 µM): 88.6%
- viability, T/C (second compound 0.316 µM, first compound 0.316 µM): 92.4%
- viability, T/C (second compound 0.316 µM, first compound 1 µM): 96.3%
- viability, T/C (second compound 0.316 µM, first compound 3.16 µM): 95.2%
- viability, T/C (second compound 0.316 µM, first compound 10 µM): 70.9%
- viability, T/C (second compound 1 µM, first compound 0.0316 µM): 94.3%
- viability, T/C (second compound 1 µM, first compound 0.1 µM): 95.4%
- viability, T/C (second compound 1 µM, first compound 0.316 µM): 83.8%
- viability, T/C (second compound 1 µM, first compound 1 µM): 88.9%
- viability, T/C (second compound 1 µM, first compound 3.16 µM): 84.7%
- viability, T/C (second compound 1 µM, first compound 10 µM): 78%
- viability, T/C (second compound 3.16 µM, first compound 0.0316 µM): 76.6%
- viability, T/C (second compound 3.16 µM, first compound 0.1 µM): 83.1%
- viability, T/C (second compound 3.16 µM, first compound 0.316 µM): 71.8%
- viability, T/C (second compound 3.16 µM, first compound 1 µM): 82.9%
- viability, T/C (second compound 3.16 µM, first compound 3.16 µM): 82.1%
- viability, T/C (second compound 3.16 µM, first compound 10 µM): 61.2%
- viability, T/C (second compound 10 µM, first compound 0.0316 µM): 62.6%
- viability, T/C (second compound 10 µM, first compound 0.1 µM): 67.6%
- viability, T/C (second compound 10 µM, first compound 0.316 µM): 66.6%
- viability, T/C (second compound 10 µM, first compound 1 µM): 58.7%
- viability, T/C (second compound 10 µM, first compound 3.16 µM): 58.5%
- viability, T/C (second compound 10 µM, first compound 10 µM): 55%

Compound: Cn1cnc2c(F)c(Nc3ccc(Br)cc3Cl)c(C(=O)NOCCO)cc21 + CC(Nc1ncnc2nc[nH]c12)c1cc2cccc(Cl)c2c(=O)n1-c1ccccc1
- IC50 (second compound 0.0316 µM): 2090 nM
- IC50 (second compound 0.1 µM): 956 nM
- IC50 (second compound 0.316 µM): 1160 nM
- IC50 (second compound 1 µM): 732 nM
- IC50 (second compound 3.16 µM): 366 nM
- IC50 (second compound 10 µM): < 9.49 nM
- viability, T/C (second compound 0.0316 µM, first compound 0.00949 µM): 79.1%
- viability, T/C (second compound 0.0316 µM, first compound 0.03 µM): 78.9%
- viability, T/C (second compound 0.0316 µM, first compound 0.0949 µM): 69.7%
- viability, T/C (second compound 0.0316 µM, first compound 0.3 µM): 67.6%
- viability, T/C (second compound 0.0316 µM, first compound 0.949 µM): 57%
- viability, T/C (second compound 0.0316 µM, first compound 3 µM): 46.6%
- viability, T/C (second compound 0.1 µM, first compound 0.00949 µM): 90.2%
- viability, T/C (second compound 0.1 µM, first compound 0.03 µM): 86.3%
- viability, T/C (second compound 0.1 µM, first compound 0.0949 µM): 77.7%
- viability, T/C (second compound 0.1 µM, first compound 0.3 µM): 57.6%
- viability, T/C (second compound 0.1 µM, first compound 0.949 µM): 54.7%
- viability, T/C (second compound 0.1 µM, first compound 3 µM): 39.5%
- viability, T/C (second compound 0.316 µM, first compound 0.00949 µM): 90.2%
- viability, T/C (second compound 0.316 µM, first compound 0.03 µM): 68.8%
- viability, T/C (second compound 0.316 µM, first compound 0.0949 µM): 74.2%
- viability, T/C (second compound 0.316 µM, first compound 0.3 µM): 68.2%
- viability, T/C (second compound 0.316 µM, first compound 0.949 µM): 53.1%
- viability, T/C (second compound 0.316 µM, first compound 3 µM): 36%
- viability, T/C (second compound 1 µM, first compound 0.00949 µM): 85.5%
- viability, T/C (second compound 1 µM, first compound 0.03 µM): 77.3%
- viability, T/C (second compound 1 µM, first compound 0.0949 µM): 65%
- viability, T/C (second compound 1 µM, first compound 0.3 µM): 58.8%
- viability, T/C (second compound 1 µM, first compound 0.949 µM): 48.1%
- viability, T/C (second compound 1 µM, first compound 3 µM): 38.6%
- viability, T/C (second compound 3.16 µM, first compound 0.00949 µM): 76.4%
- viability, T/C (second compound 3.16 µM, first compound 0.03 µM): 60.5%
- viability, T/C (second compound 3.16 µM, first compound 0.0949 µM): 60.4%
- viability, T/C (second compound 3.16 µM, first compound 0.3 µM): 54%
- viability, T/C (second compound 3.16 µM, first compound 0.949 µM): 42.5%
- viability, T/C (second compound 3.16 µM, first compound 3 µM): 33.4%
- viability, T/C (second compound 10 µM, first compound 0.00949 µM): 47.5%
- viability, T/C (second compound 10 µM, first compound 0.03 µM): 44.4%
- viability, T/C (second compound 10 µM, first compound 0.0949 µM): 38.8%
- viability, T/C (second compound 10 µM, first compound 0.3 µM): 30.5%
- viability, T/C (second compound 10 µM, first compound 0.949 µM): 19.5%
- viability, T/C (second compound 10 µM, first compound 3 µM): 14.8%
